The assay has as its system A673 Ewing sarcoma viability, CellTiter-Glo ATP luminescence, 72 h. Nature of the assay: EWS/Fli1-dependent A673 cell killing, confirmation, CellTiter-Glo luminescence, cherry-pick retest (AID 720587). For orientation: Cellular ATP, detected with luciferase, serves as a proxy for viable cell number.

The structures appear in SMILES notation.

`O=c1cc(CN2CCN(Cc3ccccc3)CC2)c2ccc(O)c(O)c2o1`: the AC35 is 8.02 µM. Regarding `C[C@H](CO)N1C[C@H](C)[C@H](CN(C)Cc2ccccc2)Oc2ccc(NC(=O)CCCCCC(=O)Nc3ccccc3N)cc2CC1=O`, the AC35 is 15.7 µM. In the case of `C[C@@H]1CN([C@H](C)CO)C(=O)c2cc(NC(=O)c3ccccc3)ccc2O[C@@H](C)CCCCO[C@H]1CN(C)C(=O)Nc1cccc2ccccc12` it was 2.17 µM; in that of `CCc1ccc2oc(C(=O)N3CCN(c4ccccc4OC)CC3)cc(=O)c2c1`, 14.3 µM; in that of `COc1ccc(CN(C)c2ncnc3sccc23)c(OC)c1OC`, 15.3 µM. Turning to `C[C@@H]1CCCCO[C@H](CN(C)Cc2ccc(C(=O)Nc3ccccc3N)cc2)[C@@H](C)CN([C@@H](C)CO)C(=O)c2cc(NS(=O)(=O)c3ccc(Cl)cc3)ccc2O1`, the AC35 was 8.42 µM. For `COc1ccc(OC)c(-c2nnc3n2N=C(c2ccc(OC)c(OC4CCOC4)c2)CS3)c1` (stereo unspecified), the AC35 was 3.24 µM. As to `CC(C)c1ccc(OCc2cccc(C(=O)N/N=C/c3cccnc3)c2)cc1`, the AC35 was 19.4 µM. `C(=Cc1c[nH]c2ccccc12)c1ccc2ccccc2n1`: the AC35 is 1.16 µM. Take `C[C@H](CO)N1C[C@H](C)[C@H](CN(C)Cc2ccc(C(F)(F)F)cc2)Oc2ccc(NC(=O)CCCCCC(=O)Nc3ccccc3N)cc2CC1=O`: the AC35 is 7.93 µM. In the case of `CCN1C/C(=C/c2ccc(N3CCOCC3)cc2)C(=O)/C(=C/c2ccc(N3CCOCC3)cc2)C1` it was 3.68 µM; in that of `C(=N\Nc1nc2ccccc2s1)/c1ccccn1`, 0.696 µM; in that of `COc1ccc(C(CCNCc2ccc(OC(C)C)cc2)C(C)C)cc1` (stereo unspecified), 12.6 µM. Turning to `O=C(NCc1cccnc1)C1Cc2c(-c3ccc(Cl)cc3)ccnc2O1` (stereo unspecified), the AC35 is 7.98 µM.

As for `COc1cc(-c2coc3c(C(=O)NCc4ccc(C(F)(F)F)cc4)cccc23)ccc1O`, the AC35 was 13.7 µM. On to `COc1ccc(NC(=O)N2CCCCN3[C@H](CO)[C@H](c4ccc(C#CCC(C)C)cc4)[C@H]3C2)cc1`, for which the AC35 is 6.47 µM. Regarding `COc1ccc(OC)c(Cc2cnc3nc(N)nc(N)c3c2C)c1`, the AC35 is 0.196 µM.

Regarding `Nc1nc(N)c(-c2cccc(C(F)(F)F)c2)c(Cc2cccc(C(F)(F)F)c2)n1`, the AC35 was 5.72 µM. In the case of `COC1C(O)C(C)OC(OC2C(Oc3cccc4c(O)c5c(=O)oc6ccc(C)c7c(=O)oc(c34)c5c67)OC(C)C(O)C2O)C1O` (stereo unspecified) it was 6.33 µM; in that of `C[C@@H]1CN([C@@H](C)CO)C(=O)c2cccc(NC(=O)CCCCCC(=O)Nc3ccccc3N)c2O[C@@H]1CN(C)Cc1ccc(Oc2ccccc2)cc1`, 14.8 µM. Turning to `Nc1sc(-c2ccccc2)cc1-c1n[nH]c(=S)n1C1CCCCC1`, the AC35 is 6.83 µM.

Consider `CN1C(=O)c2cc(NC(=O)c3ccc(C(F)(F)F)cc3)ccc2OC[C@@H]2O[C@@H](CC(=O)NC3Cc4ccccc4C3)CC[C@H]21`, for which the AC35 is 4.43 µM. Turning to `C=CCOc1ccccc1C(=O)/C=C1/C(=O)Nc2ccccc21`, the AC35 was 9.62 µM. Consider `O=C(NCc1ccc(F)cc1)N1[C@H]2CC[C@@H]1C=C(c1ccc(F)cc1OCc1ccccc1)C2`, for which the AC35 was 1.89 µM.

As for `O=C1NC(=O)N(Cc2ccccc2)C(=O)/C1=C\C=C\c1ccco1`, the AC35 is 5.05 µM. In the case of `COc1ccc(C(C)(O)c2nc(-c3cccc(F)c3)cs2)cc1` (stereo unspecified), the AC35 was 9.33 µM. `Cc1cccc(CN2C(=O)/C(=C\c3ccc(C(=O)NCCCN4CCN(C)CC4)cc3)Oc3ccccc32)c1`: the AC35 is 12.3 µM. For `COc1ccccc1N(/N=C1\Sc2ccccc2C1=O)C(C)=O`, the AC35 was 14.8 µM. Take `CCc1ccc(N2C=C(C(=O)OC)C(c3ccc(OC)cc3)C(C#N)=C2N)cc1` (stereo unspecified): the AC35 is 12.5 µM. As for `C[C@]12CC[C@H]3[C@@H](CC[C@]4(O)C[C@@H](O)CC[C@]34C=O)[C@@]1(O)CC[C@@H]2C1=CC(=O)OC1`, the AC35 was 0.641 µM.

Take `CC(C)=CCC/C(C)=C/CN1C(=O)N(c2ccc(F)cc2)[C@H]2C[C@@H](c3ccccc3)[C@@H](C)[C@@H](C(=O)N3CCOCC3)C[C@H]21`: the AC35 was 5.03 µM. Turning to `COc1ccc(CN(C)C[C@H]2Oc3ccc(NC(=O)CCCCCC(=O)Nc4ccccc4N)cc3CC(=O)N([C@H](C)CO)C[C@H]2C)cc1`, the AC35 was 18 µM. Regarding `COc1cccc(-c2cc(NC=O)c3ncc(-c4ccc(C(C)=O)cc4)n3c2)c1`, the AC35 is 4.09 µM. For `C[C@]12CC[C@H](O)C[C@H]1CC[C@@H]1[C@@H]2C[C@@H](O)[C@]2(C)[C@@H](C3=CC(=O)OC3)CC[C@]12O`, the AC35 was 1.1 µM. As for `CC(C)N1C/C(=C/c2cccnc2)C(=O)/C(=C/c2cccnc2)C1`, the AC35 is 10.5 µM. In the case of `O=C1c2ccccc2C(=O)c2cc(N3CCCCC3)ccc21`, the AC35 is 16.8 µM. In the case of `COC(=O)C[C@@H]1CC[C@@H]2[C@H](COc3ccc(NC(=O)Nc4cccc(Cl)c4)cc3C(=O)N2C)O1`, the AC35 was 12.5 µM. As for `C(=NNc1ccc2ccccc2n1)c1ccccn1`, the AC35 is 0.514 µM. With `CC(=NNc1cc(C)c2ccccc2n1)c1ccccn1`, the AC35 is 0.417 µM.

In the case of `COc1cc(C(=O)N2CCC(N3CCN(C)CC3)CC2)ccc1Nc1ncc2c(n1)N(C)c1ccccc1C(=O)N2C`, the AC35 is 10 µM. The figure for `CCN(Cc1ccccc1)c1ccc(/C=N/N=C(N)N)cc1` is 6.3 µM; for `C[C@@H]1CN([C@@H](C)CO)C(=O)c2cc(NS(=O)(=O)c3ccc(Cl)cc3)ccc2O[C@@H]1CN(C)Cc1ccc(C(=O)Nc2ccccc2N)cc1` it is 10.7 µM; for `CC12CCC3C(CCC4(O)CC(O)CCC34C=NO)C1(O)CCC2C1=COC(=O)C1` (stereo unspecified) it is 0.251 µM. Take `O=c1[nH]c(=O)n([C@H]2C[C@H](O)[C@@H](CO)O2)cc1F`: the AC35 is 0.0545 µM.

As for `COc1ccc(-c2nc3c(s2)CCc2onc(-c4ccc(OC)cc4)c2-3)cc1`, the AC35 is 8 µM. With `c1ccc(Nc2nnc(-c3ccc4c(c3)OCO4)o2)cc1`, the AC35 is 11.9 µM. As to `Cn1ccc2cc(-c3ccc4ncnc(NCc5cccs5)c4c3)ccc21`, the AC35 was 4.58 µM.

Turning to `CN=c1scc(-c2cccs2)n1/N=C/c1ccccc1O`, the AC35 is 16.9 µM.

For `C=C(C(=O)c1ccccc1)C(C(=C)C(=O)c1ccccc1)c1ccc(OC)cc1`, the AC35 is 4.04 µM. `Cc1c(CCOC(=O)CC23CC4CC(CC(C)(C4)C2)C3)sc[n+]1CC(=O)c1ccccc1`: the AC35 is 19.5 µM. As for `O=C1NC(=S)NC(=O)C1=Cc1cccn1-c1ccc(O)cc1`, the AC35 is 17.7 µM. As to `CC1(C)N=C(N)N=C(N)N1c1ccc(OCCCOc2ccccc2)c(Cl)c1`, the AC35 was 1.48 µM. For `O=c1c(Cl)cc(Cl)nn1-c1ccccc1`, the AC35 was 5.55 µM. For `C[C@@H]1CN([C@@H](C)CO)C(=O)c2cccc(NS(=O)(=O)c3ccccc3)c2O[C@@H]1CN(C)Cc1ccc(C(=O)Nc2ccccc2N)cc1`, the AC35 is 8.86 µM.

Consider `COc1ccc(-c2cc(CNc3nc(NC(C)C)nc4cc(-c5ccccc5)sc34)on2)cc1`, for which the AC35 was 10 µM. The figure for `C[C@@H]1CN([C@@H](C)CO)C(=O)c2cccc(NC(=O)Nc3cccc4ccccc34)c2O[C@@H]1CN(C)Cc1ccc(C(=O)Nc2ccccc2N)cc1` is 14.8 µM; for `COC(=O)C[C@H]1C=C[C@@H](NC(=O)Nc2ccc(C(F)(F)F)cc2)[C@H](CO)O1` it is 21.6 µM. Consider `COc1ccc(/C=C2/NC(=O)N(CC(=O)Nc3cccc(C)c3)C2=O)cc1O`, for which the AC35 was 18.8 µM.

With `O=C(Nc1cccc(S(=O)(=O)N2CCCC2)c1)c1ccc(Cl)nc1`, the AC35 was 6.28 µM. Consider `COc1ccccc1-c1ccc(OCCCN2CCC(C(O)(c3ccccc3)c3ccccc3)CC2)cc1`, for which the AC35 was 9.43 µM. In the case of `C[C@@H]1CN([C@@H](C)CO)C(=O)Cc2cc(N(C)C)ccc2O[C@@H]1CN(C)Cc1ccccc1` it was 14.4 µM. For the compound `C(=N\Nc1nc2ccccc2[nH]1)/c1ccccn1`, the AC35 was 1.74 µM. Regarding `COC(=O)c1ccccc1-c1c2ccc(=N)cc-2oc2cc(N)ccc12`, the AC35 was 3.64 µM. Take `C[C@H](CO)N1C[C@H](C)[C@H](CN(C)CC2CCCCC2)Oc2ccc(NC(=O)CCCCCC(=O)Nc3ccccc3N)cc2CC1=O`: the AC35 was 10.5 µM. Take `C[C@H](CO)N1C[C@H](C)[C@H](CN(C)Cc2ccc(C(=O)Nc3ccccc3N)cc2)Oc2c(cccc2N(C)C)C1=O`: the AC35 was 17.6 µM. `CCOc1ccc2nc(NC3=NC(c4ccc(OC)cc4)CC(=O)N3)nc(C)c2c1` (stereo unspecified): the AC35 was 12.1 µM. Consider `CCS(=O)(=O)N1Cc2ccccc2CC1C(=O)Nc1nnc(SCc2ccc(C#N)cc2)s1` (stereo unspecified), for which the AC35 is 12.5 µM. In the case of `C/C(=C\c1ccccc1)C(=O)N1CCC=CC1=O` it was 9 µM; in that of `OC[C@H]1[C@@H](c2ccc(C#CC3CCCC3)cc2)[C@@H]2CN(CCC(F)(F)F)CCCCN12`, 7.53 µM. With `CN(C[C@H]1N[C@@H](CO)[C@@H]1c1ccc(C2=CCCC2)cc1)C(=O)c1ccc(F)cc1`, the AC35 was 4.19 µM. Consider `CCOc1cc(/C=N/Nc2cc(C)nc(-n3nc(C)cc3C)n2)ccc1O`, for which the AC35 was 1.77 µM. Take `C[C@@H]1CN([C@@H](C)CO)C(=O)c2cc(NS(=O)(=O)c3ccccc3)ccc2O[C@@H]1CN(C)Cc1ccc(C(=O)Nc2ccccc2N)cc1`: the AC35 is 8.39 µM. As to `C[C@H]1CN([C@@H](C)CO)C(=O)c2cc(NS(=O)(=O)c3ccc(Cl)cc3)ccc2O[C@H]1CN(C)Cc1ccc(C(=O)Nc2ccccc2N)cc1`, the AC35 was 13.1 µM. Turning to `COC(=O)C[C@@H]1CC[C@@H]2[C@H](COc3ccc(NC(=O)Nc4ccc(C#N)cc4)cc3C(=O)N2C)O1`, the AC35 is 23.1 µM.

With `O=C(N/N=C/c1ccc[nH]1)c1cc(-c2ccc(Cl)cc2)nc2ccccc12`, the AC35 was 11.6 µM. For the compound `Oc1c(Cl)cc(Cl)c2cccnc12`, the AC35 is 5.58 µM. Regarding `CN(C)c1ccc(/C=N/Nc2nc3ccccc3o2)cc1`, the AC35 is 20.9 µM. The figure for `N#CC1=C(N)Oc2cc(N)ccc2C1c1cccc(F)c1` (stereo unspecified) is 3.12 µM; for `O=C1c2ccc3c4c(ccc(c24)C(=O)N1c1cccc(O)c1)C(=O)N(c1cccc(O)c1)C3=O` it is 2.47 µM. For the compound `C[C@H](CO)N1C[C@H](C)[C@H](CN(C)Cc2ccc(C(=O)Nc3ccccc3N)cc2)Oc2ccc(NC(=O)C3CC3)cc2CC1=O`, the AC35 is 7.86 µM. Take `Cc1ccc(S(=O)(=O)Nc2ccc3c(c2)C(=O)N([C@H](C)CO)C[C@H](C)[C@@H](CN(C)Cc2ccc(C(F)(F)F)cc2)OCCCC[C@H](C)O3)cc1`: the AC35 was 12.8 µM.

(Values after PubChem BioAssay AID720587 (Broad Institute, 2013).)
